# Source: patent US10329354B2, “Modulation of efferocytosis pathways for treatment of atherosclerotic disease” (The Board of Trustees of the Leland Stanford Junior …, priority 2013, dated 2019)
# “Also recorded” adds a separate entry of the source.
# Legend:
# CDKN2B-deficient SMCs = experiment: Phagocytosis of CDKN2B-deficient SMCs by macrophages with anti-CD47 Ab; type: cell-based; details: FIG. 12
# From the text: Implicating Cdkn2b in “efferocytosis”— the phagocytic clearance of apoptotic debris: an increase in the rate at which apoptotic debris was produced in this chronic disease model could not be observed (P=NS for TUNEL and Caspase assays at both Week 4 and Week 12). It was reasoned that loss of Cdkn2b might regulate the rate at which apoptotic debris is cleared in the developing atherosclerotic plaque. This process, known as “efferocytosis” (from the Greek meaning to carry the dead to the grave), was assessed with established in vitro flow cytometry-based co-culture phagocytosis assays.
# CALR promoter = experiment: CALR luciferase promoter reporter assay with TGF-β; type: cell-based, human; details: control-transfected HEK cells, TGFβ-1 0.5-10 ng/mL, 16 hours
# Description: Calreticulin LightSwitch Promoter Reporter GoClones (RenSP, S721464), Empty vectors (S790005) and Cypridina TK Control constructs (pTK-Cluc, SN0322S) were obtained from SwitchGear Genomics (Menlo Park, Calif.) and transfected into HEK cells using Lipofectamine 2000 (Invitrogen). For knockdown assays, 5 pmol of anti-CDKN2B or control siRNA were co-transfected. For overexpression, CDKN2B (sc319536) and Rb expression plasmid (sc119971) and empty vector (pCMV6) were obtained from Origene and 100 ng of plasmid were co-transfected. Dual luciferase activity was measured with the LightSwitch Dual Assay System after 48 hours using a SpectraMax L luminometer (Molecular Devices), according to the manufacturer's instructions. In some experiments, media was changed to serum-free media after 24 hours of transfection. Studies were performed at baseline, and after the cells had been exposed to escalating doses of recombinant human TGFβ-1 (from Sigma, 0.5-10 ng/mL) for the final 16 hours prior to analysis. Relative luciferase activity (Renilla/Cypridina luciferase ratio) is expressed as the percentage change relative to the basal values obtained from control-transfected cells not exposed to TGF-β treatment.
# CDKN2B = CDKN2B expression in untransfected HCASMC after exogenous TGF-β; type: cell-based, human; details: FIG. 9B
# Description: Human coronary artery SMC (HCASMC, Lonza, Walkersville, Md., passage #3-6) were propagated in SmGM-2 growth media (Lonza) containing 5% FBS. Human THP-1 monocytic cells, human embryonic kidney (HEK-293) and RAW 264.7 macrophages (ATCC) were grown in DMEM-growth media containing 10% FBS. Primary vascular smooth muscle cells were harvested from the aortas of Cdkn2b^+/+ and Cdkn2b^−/− mice, as previously described. Primary activated macrophages were harvested from mice 72 hrs after intraperitoneal injection of 2 ml of 4% thioglycollate, as previously described. To induce growth arrest and the expression of differentiation genes, SMC were serum starved in basal media (SmBM) for 72 hours, according to conventional protocols.
# PCR RNA was isolated from cell lysates using the miRNeasy Mini Kit (Qiagen, Valencia, Calif.) according to the manufacturer's protocol. RNA was isolated from the murine organ samples using the Trizol method (Invitrogen). RNA was quantified with the Nanodrop machine ([…], Santa Clara, Calif.) For quantitation of gene transcription, cDNA was generated with M-MuLV reverse transcriptase, and then amplified on the ABI PRISM 7900HT with commercially available TaqMan primers (Applied Biosystems, Foster City, Calif.) and normalized to 18S internal controls, as previously described. A list of the primers and probes used in these studies is provided in below.
Substance,increase in phagocytosis of SMCs by Mϕ's (CDKN2B-deficient SMCs; CDKN2B-deficient SMCs) [%],phagocytosis of CDKN2B-deficient SMCs by macrophages (CDKN2B-deficient SMCs),CALR expression (promoter reporter activity) (CALR promoter),CDKN2B expression (CDKN2B)
Hu5F9-G4: humanized anti-CD47 mAb engineered by CDR grafting of mouse sequences into a human IgG4 framework,~72,enables macrophages to phagocytose,–,–
TGF-β: recombinant human TGFβ-1 (from Sigma),–,–,increased in response to TGF-β treatment in a dose-dependent manner; also recorded: increased by TGF-β in a dose-dependent manner,increased their expression of CDKN2B
